Biological target: T1, FAK enzyme (6 His tagged kinase domain, GenBank NP—722560) (Homo sapiens, UniProt Q05397)
T1 construct: 6 His; made in house; host or cells: insect cell culture infected with baculovirus
Assay: In vitro enzyme assay (a): sandwich ELISA of FAK tyrosine kinase activity on polyGAT peptide, TMB colorimetric endpoint
Format: biochemical
Conditions: in vitro Enzyme Assay test (a); ATP at Km; geometric mean of n > 1 measurements, values marked * tested once
Experimental: (a) In Vitro Enzyme Assay
A sandwich ELISA assay with a 3,3′,5,5′-tetramethyl benzidine (TMB) colorimetric endpoint was used in order to determine the level of effect of selected compounds on inhibition of FAK protein tyrosine kinase enzyme activity. A synthetic tyrosine containing peptide is coated onto a plastic surface, the level of phosphorylation of these tyrosine residues by the kinase enzyme in the presence of inhibitors is measured using an antibody that binds specifically to phosphorylated tyrosine residues. The amount of antibody bound to substrate is proportional to the level of enzyme catalysis.
Assay Protocol to Identify Inhibitors of Focal Adhesion Kinase (FAK).
A PlateMate Plus™ 384 automated liquid handling unit with a 100 μl disposable tip head was used to make all the non compound reagent additions and a Tecan 384PW plate washer with 384 head was used for all wash steps. Initially Matrix 384 well polystyrene plates (Cat #:4311) were coated with 40 μl/well of a 0.0375 mg/ml solution of synthetic poly peptide (polyGAT, Sigma Cat #:P3899) dissolved in phosphate buffered saline (PBS). Plates were stored overnight at 4° C. Immediately before use the coating solution was aspirated out and each well washed with 2×100 μl of PBS+0.05% Tween 20. To remove surplus phosphate, the wells were then washed with 2×100 μl 50 mM HEPES buffer pH 7.4. Plates were blotted dry before the addition of compounds. Compounds were tested over a 12 point dose range, a Labcyte Echo 550 was used to dispense compounds in nl volumes and back fill with DMSO. The final concentration of compound in the assay was dependent on the starting concentration of compound. For a 10 mM stock compound the final assay dose ranged from 100 μM down to […]. Control wells containing 120 nl DMSO (Max) or 120 nl of 10 mM staurosporine (LC Laboratories, Boston, USA Cat #: S-9300) (Min) were included in each plate. 10 ul of 5% dimethyl sulfoxide v/v (DMSO, Fisher Scientific) was added to each well immediately prior to addition of 10 μl of a co-factor solution containing 80 mM MgCl2 (Sigma Cat #: M1028); 80 mM MnCl2 (Sigma Cat #: M1787); ATP at a concentration calculated to enable the initial reaction velocity to progress at half the maximum velocity (Km for ATP) (Sigma Cat #:A7699). A final addition of 20 μl of enzyme solution containing 100 mM HEPES pH7.4; 0.2 mM sodium vanadate (Sigma Cat #:S6508); 0.2 g/l bovine serum albumin (BSA, Sigma Cat #: A7888); 0.2 mM dithioreitol (Sigma Cat #: 5545); 0.1% Triton X100 (Sigma Cat #:X100); FAK enzyme (20 μl/ml) was made to each well to start the assay running FAK enzyme was generated from an insect culture infected with baculo virus containing the DNA sequence encoding the 6 His tagged kinase domain (GenBank NP_722560).
Plates were left at room temperature for 25 minutes before 10 μl of 500 mM ethylenediaminetetraacetic acid (EDTA) was added to stop the assay and the wells were immediately washed 3×100 μl with PBS+0.05% Tween 20. A 4G10 antibody (Millipore Cat #: 16-105; 16-184) with a directly conjugated horse radish peroxidase (HRP) was used to detect the phosphorylation of the substrate by the FAK. 40 μl of PBS+0.05% Tween 20 containing 0.5% BSA and 0.1 μl/ml antibody was added to each well and left for 1 hour at room temperature to allow the antibody to bind. After this period the wells were again washed with 3×100 μl of PBS+0.05% Tween 20. TMB (Sigma Cat #: T2885) was used as a substrate for the HRP. Phosphate-citrate buffer was made up using capsules provided by Sigma (Cat #: P4922) following the manufacturers guidelines. TMB was dissolved at a concentration of 1 mg/ml in DMSO and let down to a final concentration of 0.05 mg/ml with the phosphor-citrate buffer. 40 μl of the TMB solution was added to each assay well and left for 30 minutes for the blue colour to develop. […]

T1 sequence (Q05397 422-680 limits assumed): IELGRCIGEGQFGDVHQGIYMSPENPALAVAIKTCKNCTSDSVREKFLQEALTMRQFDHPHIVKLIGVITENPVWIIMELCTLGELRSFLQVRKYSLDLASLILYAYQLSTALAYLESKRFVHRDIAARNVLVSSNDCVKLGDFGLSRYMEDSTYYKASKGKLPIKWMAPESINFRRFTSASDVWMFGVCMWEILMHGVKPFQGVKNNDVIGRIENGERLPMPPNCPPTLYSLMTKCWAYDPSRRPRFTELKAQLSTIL

| SMILES | IC50 [µM] |
| --- | --- |
| CNC(=O)c1ccccc1Nc1cc(Nc2cc(C3CC3)[nH]n2)ncc1Cl [Example 3.17, 2-[[5-chloro-2-[(5-cyclopropyl-1H-pyrazol-3-yl)amino]-4-pyridyl]amino]-N-methyl-benzamide] | 0.093 |
| CON(C)C(=O)c1ccccc1Nc1cc(Nc2cn(C)nc2C)ncc1Cl [Example 3.21, 2-[[5-chloro-2-[(1,3-dimethylpyrazol-4-yl)amino]-4-pyridyl]amino]-N-methoxy-N-methyl-benzamide] | 0.324 |
| Cc1nn(C)cc1Nc1cc(Nc2cccc3c2C(=O)N(C)CCO3)c(Cl)cn1 [Example 3.22, 6-[[5-Chloro-2-[(1,3-dimethylpyrazol-4-yl)amino]-4-pyridyl]amino]-4-methyl-2,3-dihydro-1,4-benzoxazepin-5-one] | 0.025 |
| CN1CCc2cccc(Nc3cc(Nc4cnn(CC(=O)N5CCCC5)c4)ncc3Cl)c2C1=O [Example 3.23, 8-[[5-Chloro-2-[[1-(2-oxo-2-pyrrolidin-1-yl-ethyl)pyrazol-4-yl]amino]-4-pyridyl]amino]-2-methyl-3,4-dihydroisoquinolin-1-one] | 0.02 |
| CN(C)CCNC(=O)Cn1cc(Nc2cc(Nc3cccc4c3C(=O)N(C)CC4)c(Cl)cn2)cn1 [Example 3.26, 2-[4-[[5-chloro-4-[(2-methyl-1-oxo-3,4-dihydroisoquinolin-8-yl)amino]-2-pyridyl]amino]pyrazol-1-yl]-N-(2-dimethylaminoethyl)acetamide] | 0.038 |
| CN1CCc2cccc(Nc3cc(Nc4cnn(CC(=O)N5CCOCC5)c4)ncc3Cl)c2C1=O [Example 3.27, 8-[[5-chloro-2-[[1-(2-morpholino-2-oxo-ethyl)pyrazol-4-yl]amino]-4-pyridyl]amino]-2-methyl-3,4-dihydroisoquinolin-1-one] | 0.011 |
| CN1CCc2cccc(Nc3cc(Nc4cnn(C)c4)ncc3Cl)c2C1=O [Example 3.28, 8-[[5-Chloro-2-[(1-methylpyrazol-4-yl)amino]-4-pyridyl]amino]-2-methyl-3,4-dihydroisoquinolin-1-one] | 0.041 |
| Cc1cc(Nc2cc(Nc3cccc4c3C(=O)N(C)CC4)c(Cl)cn2)nn1C [Example 3.30, 8-[[5-chloro-2-[(1,5-dimethylpyrazol-3-yl)amino]-4-pyridyl]amino]-2-methyl-3,4-dihydroisoquinolin-1-one] | 0.059 |
| CN1CCc2cccc(Nc3cc(Nc4cnn(C5CCNCC5)c4)ncc3Cl)c2C1=O [Example 3.33, 8-[[5-Chloro-2-[[1-(4-piperidyl)pyrazol-4-yl]amino]-4-pyridyl]amino]-2-methyl-3,4-dihydroisoquinolin-1-one] | 0.191 |
| CN1CCc2cccc(Nc3cc(Nc4cnn(C5CCCNC5)c4)ncc3Cl)c2C1=O (stereo not shown) [Example 3.34, 8-[[5-chloro-2-[[1-(3-piperidyl)pyrazol-4-yl]amino]-4-pyridyl]amino]-2-methyl-3,4-dihydroisoquinolin-1-one] | 0.16 |
| Cc1nn(C)cc1Nc1cc(Nc2ccc(N3CCN(C(C)C)CC3)c3c2C(=O)N(C)C3)c(Cl)cn1 [Example 3.38, 7-[[5-Chloro-2-[(1,3-dimethylpyrazol-4-yl)amino]-4-pyridyl]amino]-4-(4-isopropylpiperazin-1-yl)-2-methyl-isoindolin-1-one] | 0.036 |
| CNC(=O)c1cccc(F)c1Nc1cc(Nc2cn(C)nc2C)ncc1Cl [Example 3.39, 2-[[5-Chloro-2-[(1,3-dimethylpyrazol-4-yl)amino]-4-pyridyl]amino]-3-fluoro-N-methyl-benzamide] | 0.055 |
| CNC(=O)c1cc(F)ccc1Nc1cc(Nc2cn(C)nc2C)ncc1Cl [Example 3.41, 2-[[5-chloro-2-[(1,3-dimethylpyrazol-4-yl)amino]-4-pyridyl]amino]-5-fluoro-N-methyl-benzamide] | 0.087 |

Further compounds by falling IC50, results first:

| IC50 [µM] | SMILES |
| --- | --- |
| 1.23 | CON(C)C(=O)c1ccccc1Nc1cc(Nc2cnn(C3CCN(C)CC3)c2)ncc1Cl [Example 3.20, 2-[[5-Chloro-2-[[1-(1-methyl-4-piperidyl)pyrazol-4-yl]amino]-4-pyridyl]amino]-N-methoxy-N-methyl-benzamide] |
| 1.05 | CNC(=O)c1cc(N2CCN(C)CC2)ccc1Nc1cc(Nc2cn(C)nc2C)ncc1Cl [Example 3.37, 2-[[5-chloro-2-[(1,3-dimethylpyrazol-4-yl)amino]-4-pyridyl]amino]-N-methyl-5-(4-methylpiperazin-1-yl)benzamide] |
| 0.686 | CNC(=O)c1ccccc1Nc1cc(Nc2cnn(C3CCNCC3)c2)ncc1Cl [Example 3.19, 2-[[5-Chloro-2-[[1-(4-piperidyl)pyrazol-4-yl]amino]-4-pyridyl]amino]-N-methyl-benzamide] |
| 0.275 | CNC(=O)c1ccccc1Nc1cc(Nc2cn(C)cn2)ncc1Cl [Example 3.18, 2-[[5-chloro-2-[(1-methylimidazol-4-yl)amino]-4-pyridyl]amino]-N-methyl-benzamide] |
| 0.249 | CNC(=O)c1cc(N2CCN(C)CC2)ccc1Nc1cc(Nc2cc(C)n(C)n2)ncc1Cl [Example 3.36, 2-[[5-Chloro-2-[(1,5-dimethylpyrazol-3-yl)amino]-4-pyridyl]amino]-N-methyl-5-(4-methylpiperazin-1-yl)benzamide] |
| 0.171 | CC(=O)N1CCC(n2cc(Nc3cc(Nc4cccc5c4C(=O)N(C)CC5)c(Cl)cn3)cn2)CC1 [Example 3.31, 8-[[2-[[1-(1-acetyl-4-piperidyl)pyrazol-4-yl]amino]-5-chloro-4-pyridyl]amino]-2-methyl-3,4-dihydroisoquinolin-1-one] |
| 0.122 | CNC(=O)c1c(F)cccc1Nc1cc(Nc2cn(C)nc2C)ncc1Cl [Example 3.40, 2-[[5-Chloro-2-[(1,3-dimethylpyrazol-4-yl)amino]-4-pyridyl]amino]-6-fluoro-N-methyl-benzamide] |
| 0.118 | CN1CCC(n2cc(Nc3cc(Nc4cccc5c4C(=O)N(C)CC5)c(Cl)cn3)cn2)CC1 [Example 3.29, 8-[[5-chloro-2-[[1-(1-methyl-4-piperidyl)pyrazol-4-yl]amino]-4-pyridyl]amino]-2-methyl-3,4-dihydroisoquinolin-1-one] |
| 0.036 | Cc1nn(C)cc1Nc1cc(Nc2cccc3c2C(=O)N(C)C3)c(Cl)cn1 [Example 3.35, 7-[[5-Chloro-2-[(1,3-dimethylpyrazol-4-yl)amino]-4-pyridyl]amino]-2-methyl-isoindolin-1-one] |
| 0.027 | COCCN(C)C(=O)Cn1cc(Nc2cc(Nc3cccc4c3C(=O)N(C)CC4)c(Cl)cn2)cn1 [Example 3.25, 2-[4-[[5-chloro-4-[(2-methyl-1-oxo-3,4-dihydroisoquinolin-8-yl)amino]-2-pyridyl]amino]pyrazol-1-yl]-N-(2-methoxyethyl)-N-methyl-acetamide] |
| 0.018 | COCCNC(=O)Cn1cc(Nc2cc(Nc3cccc4c3C(=O)N(C)CC4)c(Cl)cn2)cn1 [Example 3.24, 2-[4-[[5-chloro-4-[(2-methyl-1-oxo-3,4-dihydroisoquinolin-8-yl)amino]-2-pyridyl]amino]pyrazol-1-yl]-N-(2-methoxyethyl)acetamide] |
| 0.009 | Cc1nn(C)cc1Nc1cc(Nc2cccc3c2C(=O)N(C)CC3)c(Cl)cn1 [Example 3.32, 8-[[5-chloro-2-[(1,3-dimethylpyrazol-4-yl)amino]-4-pyridyl]amino]-2-methyl-3,4-dihydroisoquinolin-1-one] |

— US8569298B2, “Pyridine compounds” (Astrazeneca AB, priority 2008, dated 2013)
